According to patent US10981905B2, “Heteroaryl-substituted sulfonamide compounds and their use as therapeutic agents” (Xenon Pharmaceuticals Inc., priority 2018, dated 2021):
Where a name gives a salt, the structure may show the parent alone. Read-outs that look alike come from different tables or passages of the source.

Tests used:
Nav1.6 = Nav1.6 (Homo sapiens (Human), UniProt Q9UQD0); assay: Sodium Influx Assay (Flux), Nav1.6; format: cell-based; settings: Trex HEK293 cells, ANG2 dye, inactivated state
Nav1.1 = Nav1.1 (Homo sapiens (Human), UniProt P35498); assay: Sodium Influx Assay (Flux), Nav1.1; format: cell-based; settings: Trex HEK293 cells, ANG2 dye, inactivated state
Nav1.5 = Nav1.5 (Homo sapiens (Human), UniProt Q14524); assay: Sodium Influx Assay (Flux), Nav1.5
Chain of Nav1.5 (Q14524 other isoform, or with tags, fused parts or gaps): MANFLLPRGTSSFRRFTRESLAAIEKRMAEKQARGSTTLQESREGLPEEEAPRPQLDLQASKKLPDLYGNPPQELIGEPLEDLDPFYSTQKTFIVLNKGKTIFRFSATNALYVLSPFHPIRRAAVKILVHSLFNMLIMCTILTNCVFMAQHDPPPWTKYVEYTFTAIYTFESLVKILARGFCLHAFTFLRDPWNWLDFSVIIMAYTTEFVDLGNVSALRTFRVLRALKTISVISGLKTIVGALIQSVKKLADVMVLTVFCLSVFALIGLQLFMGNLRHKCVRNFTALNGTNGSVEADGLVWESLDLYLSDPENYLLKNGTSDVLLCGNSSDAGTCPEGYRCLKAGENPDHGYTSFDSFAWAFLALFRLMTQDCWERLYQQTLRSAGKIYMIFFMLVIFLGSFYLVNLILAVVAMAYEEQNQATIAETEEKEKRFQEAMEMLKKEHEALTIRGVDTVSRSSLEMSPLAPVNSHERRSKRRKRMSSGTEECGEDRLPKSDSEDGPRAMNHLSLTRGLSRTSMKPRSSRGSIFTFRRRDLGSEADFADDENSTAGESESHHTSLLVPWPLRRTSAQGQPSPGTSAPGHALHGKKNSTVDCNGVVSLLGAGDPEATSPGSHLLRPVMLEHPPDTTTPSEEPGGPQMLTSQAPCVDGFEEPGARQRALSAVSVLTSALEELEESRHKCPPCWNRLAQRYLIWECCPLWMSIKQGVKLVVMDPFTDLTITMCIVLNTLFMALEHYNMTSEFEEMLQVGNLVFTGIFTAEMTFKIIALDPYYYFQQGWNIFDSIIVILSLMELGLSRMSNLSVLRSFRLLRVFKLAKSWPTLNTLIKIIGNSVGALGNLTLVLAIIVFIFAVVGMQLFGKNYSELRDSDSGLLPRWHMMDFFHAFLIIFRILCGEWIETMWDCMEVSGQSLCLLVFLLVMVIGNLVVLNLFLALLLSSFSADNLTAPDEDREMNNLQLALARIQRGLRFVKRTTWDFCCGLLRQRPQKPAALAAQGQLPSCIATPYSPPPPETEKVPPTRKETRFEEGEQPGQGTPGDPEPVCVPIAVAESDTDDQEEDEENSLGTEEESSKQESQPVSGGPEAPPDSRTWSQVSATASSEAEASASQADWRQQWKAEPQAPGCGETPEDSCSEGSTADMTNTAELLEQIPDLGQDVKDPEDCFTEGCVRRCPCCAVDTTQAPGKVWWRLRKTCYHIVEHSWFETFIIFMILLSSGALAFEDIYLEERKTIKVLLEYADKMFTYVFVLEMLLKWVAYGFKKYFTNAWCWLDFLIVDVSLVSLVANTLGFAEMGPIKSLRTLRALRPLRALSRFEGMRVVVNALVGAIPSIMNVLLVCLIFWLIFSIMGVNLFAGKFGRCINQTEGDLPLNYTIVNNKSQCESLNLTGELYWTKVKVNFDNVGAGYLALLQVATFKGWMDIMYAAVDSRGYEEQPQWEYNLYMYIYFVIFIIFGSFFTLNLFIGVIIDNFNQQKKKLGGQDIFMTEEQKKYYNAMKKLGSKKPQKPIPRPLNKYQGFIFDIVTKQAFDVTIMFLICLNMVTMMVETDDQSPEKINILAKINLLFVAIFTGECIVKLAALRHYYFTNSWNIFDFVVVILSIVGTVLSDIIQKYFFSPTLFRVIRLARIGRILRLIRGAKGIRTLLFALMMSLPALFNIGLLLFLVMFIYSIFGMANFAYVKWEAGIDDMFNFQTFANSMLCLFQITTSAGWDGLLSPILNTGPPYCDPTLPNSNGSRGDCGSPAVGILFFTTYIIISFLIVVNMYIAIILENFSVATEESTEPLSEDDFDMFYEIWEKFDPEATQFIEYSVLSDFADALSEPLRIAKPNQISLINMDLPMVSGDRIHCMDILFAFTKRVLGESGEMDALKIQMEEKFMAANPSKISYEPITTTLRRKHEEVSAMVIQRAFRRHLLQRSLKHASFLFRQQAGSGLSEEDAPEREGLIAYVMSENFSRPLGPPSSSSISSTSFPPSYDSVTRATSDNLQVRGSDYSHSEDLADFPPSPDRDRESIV

[1] = read-out: Flux NaV1.5 IC50, sodium influx assay, Trex HEK293 cells, ANG2 dye, inactivated state

SMILES | IC50 (Nav1.6) [µM] | IC50 (Nav1.1) [µM] | IC50 (Nav1.5; [1]) [µM] | IC50 (Nav1.5) [µM]
Cc1cc(S(=O)(=O)Nc2cccc(F)n2)ncc1NCc1c(F)cccc1CN1CCC1 [Example 9, 5-((2-(azetidin-1-ylmethyl)-6-fluorobenzyl)amino)-N-(6-fluoropyridin-2-yl)-4-methylpyridine-2-sulfonamide] | 0.917 | 30 | 21.1 | –
Cc1nc(S(=O)(=O)Nc2cccc(F)n2)c(F)cc1NCc1ccccc1CN(C)C(C)(C)C [Example 32, 5-((2-((tert-butyl(methyl)amino)methyl)benzyl)amino)-3-fluoro-N-(6-fluoropyridin-2-yl)-6-methylpyridine-2-sulfonamide trifluoroacetic acid salt] | 0.272 | 16.7 | 30 | –
Cc1cc(S(=O)(=O)Nc2ccsn2)ncc1NCc1c(F)cccc1CN1CCC1 [Example 12, 5-((2-(azetidin-1-ylmethyl)-6-fluorobenzyl)amino)-N-(isothiazol-3-yl)-4-methylpyridine-2-sulfonamide trifluoroacetic acid salt] | 3.43 | 30 | 30 | –
Cc1nc(S(=O)(=O)Nc2cscn2)c(F)cc1NCc1c(F)cccc1CN(C)C(C)C [Example 35, 3-fluoro-5-((2-fluoro-6-((isopropyl(methyl)amino)methyl)benzyl)amino)-6-methyl-N-(thiazol-4-yl)pyridine-2-sulfonamide trifluoroacetic acid salt] | 0.024 | 10.5 | – | ≥ 30
O=S(=O)(Nc1cscn1)c1ccc(NCc2c(F)cccc2CN2CCCC2)c(C(F)F)n1 [Example 18, 6-(difluoromethyl)-5-((2-fluoro-6-(pyrrolidin-1-ylmethyl)benzyl)amino)-N-(thiazol-4-yl)pyridine-2-sulfonamide formic acid salt] | 0.015 | 15.5 | 21.4 | –
Cc1nc(S(=O)(=O)Nc2cscn2)ccc1NCc1c(F)cccc1CN1CCCC1 [Example 30, 5-((2-fluoro-6-(pyrrolidin-1-ylmethyl)benzyl)amino)-6-methyl-N-(thiazol-4-yl)pyridine-2-sulfonamide trifluoroacetic acid salt] | 0.111 | 30 | 30 | –
Cc1sc(S(=O)(=O)Nc2cccc(F)n2)cc1NCc1c(F)cccc1Br [Example 23, 4-((2-bromo-6-fluorobenzyl)amino)-N-(6-fluoropyridin-2-yl)-5-methylthiophene-2-sulfonamide] | 9.54 | 7.68 | 30 | –
Cc1c(NCc2c(F)cccc2CN(C)C(C)C)cnc(S(=O)(=O)Nc2cccc(F)n2)c1F [Example 45, 3-fluoro-5-((2-fluoro-6-((isopropyl(methyl)amino)methyl)benzyl)amino)-N-(6-fluoropyridin-2-yl)-4-methylpyridine-2-sulfonamide] | 1.93 | 30 | 30 | –
Cc1nc(S(=O)(=O)Nc2cscn2)ccc1NCc1ccccc1CN(C)C(C)(C)C [Example 28, 5-((2-((tert-butyl(methyl)amino)methyl)benzyl)amino)-6-methyl-N-(thiazol-4-yl)pyridine-2-sulfonamide trifluoroacetic acid salt] | 0.782 | ≥ 30 | – | ≥ 30
O=S(=O)(Nc1cscn1)c1cc(C(F)F)c(NCc2c(F)cccc2CN2CCCC2)cn1 [Example 17, 4-(difluoromethyl)-5-((2-fluoro-6-(pyrrolidin-1-ylmethyl)benzyl)amino)-N-(thiazol-4-yl)pyridine-2-sulfonamide formic acid salt] | 1.46 | 30 | 30 | –
Cc1nc(S(=O)(=O)Nc2cccc(F)n2)ccc1NCc1c(F)cccc1CN1CCCC1 [Example 41, 5-((2-fluoro-6-(pyrrolidin-1-ylmethyl)benzyl)amino)-N-(6-fluoropyridin-2-yl)-6-methylpyridine-2-sulfonamide trifluoroacetic acid salt] | 0.056 | 11.1 | 30 | –
O=S(=O)(Nc1cscn1)c1cc(C(F)(F)F)c(NCc2c(F)cccc2CN2CCC2)cn1 [Example 31, 5-((2-(azetidin-1-ylmethyl)-6-fluorobenzyl)amino)-N-(thiazol-4-yl)-4-(trifluoromethyl)pyridine-2-sulfonamide] | 1.5 | 30 | 30 | –
O=S(=O)(Nc1cscn1)c1ccc(NCc2c(F)cccc2CN2CCC2)nc1 [Example 5, 6-((2-(azetidin-1-ylmethyl)-6-fluorobenzyl)amino)-N-(thiazol-4-yl)pyridine-3-sulfonamide] | 8.47 | 30 | 26.5 | –
Cc1nc(S(=O)(=O)Nc2cscn2)c(F)cc1NCc1c(F)ccc(F)c1Br [Example 36, 5-((2-bromo-3,6-difluorobenzyl)amino)-3-fluoro-6-methyl-N-(thiazol-4-yl)pyridine-2-sulfonamide trifluoroacetic acid salt] | 0.863 | 0.245 | 30 | –
Cc1nc(S(=O)(=O)Nc2cccc(F)n2)ccc1NCc1c(F)cccc1CN(C)C(C)(C)C [Example 22, 5-((2-((tert-butyl(methyl)amino)methyl)-6-fluorobenzyl)amino)-N-(6-fluoropyridin-2-yl)-6-methylpyridine-2-sulfonamide trifluoroacetic acid salt] | 0.221 | 30 | 30 | –
CN(Cc1cccc(F)c1CNc1cc(F)c(S(=O)(=O)Nc2cscn2)nc1C1CC1)C(C)(C)C [Example 49, 5-((2-((tert-butyl(methyl)amino)methyl)-6-fluorobenzyl)amino)-6-cyclopropyl-3-fluoro-N-(thiazol-4-yl)pyridine-2-sulfonamide] | 0.078 | 3.75 | 7.5 | –
Cc1cc(S(=O)(=O)Nc2cscn2)cnc1NCc1c(F)cccc1CN(C)C(C)(C)C [Example 13, 6-((2-((tert-butyl(methyl)amino)methyl)-6-fluorobenzyl)amino)-5-methyl-N-(thiazol-4-yl)pyridine-3-sulfonamide formic acid salt] | 11.3 | 14.9 | 6.02 | –
Cc1nc(S(=O)(=O)Nc2cscn2)c(F)cc1NCc1cccc(C(F)(F)F)c1CN1C2CCC1CC2 [Example 37, 5-((2-((7-azabicyclo[2.2.1]heptan-7-yl)methyl)-3-(trifluoromethyl)benzyl)amino)-3-fluoro-6-methyl-N-(thiazol-4-yl)pyridine-2-sulfonamide trifluoroacetic acid salt] | 5.92 | 8.7 | – | ≥ 30
Cc1nc(NCc2c(F)cccc2CN(C)C(C)(C)C)ccc1S(=O)(=O)Nc1cscn1 [Example 10, 6-((2-((tert-butyl(methyl)amino)methyl)-6-fluorobenzyl)amino)-2-methyl-N-(thiazol-4-yl)pyridine-3-sulfonamide formic acid salt] | 5.31 | 23.6 | 7.76 | –
O=S(=O)(Nc1cscn1)c1ccc(NCc2c(F)ccc(F)c2CN2CCCC2)n2ccnc12 [Example 44, 5-((3,6-difluoro-2-(pyrrolidin-1-ylmethyl)benzyl)amino)-N-(thiazol-4-yl)imidazo[1,2-a]pyridine-8-sulfonamide trifluoroacetic acid salt] | 0.171 | 20.2 | 8.85 | –
Cc1nc(S(=O)(=O)Nc2cscn2)c(F)cc1NCc1ccccc1CN(C)C(C)(C)C [Example 34, 5-((2-((tert-butyl(methyl)amino)methyl)benzyl)amino)-3-fluoro-6-methyl-N-(thiazol-4-yl)pyridine-2-sulfonamide formic acid salt] | 0.037 | ≥ 30 | – | ≥ 30
Cc1cc(S(=O)(=O)Nc2cscn2)ncc1NCc1c(F)cccc1CN1CCC1 [Example 7, 5-((2-(azetidin-1-ylmethyl)-6-fluorobenzyl)amino)-4-methyl-N-(thiazol-4-yl)pyridine-2-sulfonamide formic acid salt] | 5.82 | 30 | 30 | –
Cc1nc(S(=O)(=O)Nc2cscn2)ccc1N[C@@H](C)c1ccccc1F [Example 3, (S)-5-((1-(2-fluorophenyl)ethyl)amino)-6-methyl-N-(thiazol-4-yl)pyridine-2-sulfonamide] | 4.74 | 30 | 30 | –
Cc1nc(NCc2c(F)cccc2CN2CCCC2)ccc1S(=O)(=O)Nc1cccc(F)n1 [Example 40, 6-((2-fluoro-6-(pyrrolidin-1-ylmethyl)benzyl)amino)-N-(6-fluoropyridin-2-yl)-2-methylpyridine-3-sulfonamide trifluoroacetic acid salt] | 2.23 | 5.54 | 3.27 | –
Cc1cc(S(=O)(=O)Nc2cccc(F)n2)sc1NCc1c(F)cccc1CN1CCCC1 [Example 43, 5-((2-fluoro-6-(pyrrolidin-1-ylmethyl)benzyl)amino)-N-(6-fluoropyridin-2-yl)-4-methylthiophene-2-sulfonamide trifluoroacetic acid salt] | 2.11 | 8.21 | 10.3 | –
Cc1nc(S(=O)(=O)Nc2ccon2)c(F)cc1NCc1ccccc1CN(C)C(C)(C)C [Example 46, 5-((2-((tert-butyl(methyl)amino)methyl)benzyl)amino)-3-fluoro-N-(isoxazol-3-yl)-6-methylpyridine-2-sulfonamide trifluoroacetic acid salt] | 1.78 | ≥ 30 | – | ≥ 30
Cc1nc(S(=O)(=O)Nc2cscn2)ccc1NCc1c(F)cccc1CN1CC(C)(F)C1 [Example 14, 5-((2-fluoro-6-((3-fluoro-3-methylazetidin-1-yl)methyl)benzyl)amino)-6-methyl-N-(thiazol-4-yl)pyridine-2-sulfonamide] | 0.382 | 13 | 24.5 | –
